“And” between values parts separate entries of the source, which are not always exact repeats. Identical values can stand only once. Like-named read-outs stand apart in the source and are kept apart here.
Tests used:
[1] = system: S 180 Ascites; test: effective dose (ED90) and therapeutic index, S 180 ascites, method of Miller and Taiter; type: in vivo, mice; parameters: ED90: unit not given here; settings: for Therapeutic Index: LD50/ED90; for ED90: dose which causes a 50% increase in life span in 90% of the test animals, determined graphically
Protocol: The effective dose (ED90), lethal dose (LD50) and therapeutic index (TI) were determined via the method of Miller and Taiter (Reported by R. A. Turner, "Screening Methods in Pharmacology", Academic Press, New York, pages 61-62 (1965)).
In this study Ed90 represents the dose which causes a 50% increase in life span (ILS) in 90% of the test animals (mice) determined graphically. The LD50 value represents the lethal dose to 50% of said animals (Therapeutic Index=LD50 /Ed90).

[2] = system: S180 ascites; test: Anti-Tumor Screening; S180 ascites in mice (% increase in life span, survivors); type: in vivo, female CFW Swiss mice; settings: for Best % ILS (Dosage): Table 4
Protocol: The compounds used in this invention were evaluated against S180 ascites in female CFW Swiss mice. The mice were weighed (average weight: 20 g), placed into cages (six mice to a cage) and on day zero the mice were inoculated with 0.2 ml of a freshly prepared saline suspension (0.15M NaC1) containing 1×10^7 tumor cells/ml or a total of 2×10^6 cells. This inoculum was freshly prepared using "transfer" mice which had been injected with tumor cells the previous week; it was obtained via the following steps (1) the removal of cells from the peritoneal cavity of the sacrificed transfer mouse, (2) alternate centrifugation and washing operations (2-3 times with cold saline) to remove blood and other components, and (3) dilution of the volume of the packed cell with saline (1:3). A final centrifugation was carried out at 1000 RPM over a two minute period. A cell count was made on a 2000-fold dilution of this 1:3 suspension by means of a Coulter Counter. A final dilution to 1×10^7 cells/ml was made based on the average count.
On day 1, solutions of the test compounds were prepared and each mouse in a set of six was injected with the same test compound at the same dosage. The doses were based on the average weight of the animals (cage weight). Also, beginning on day 1 two controls were employed containing six mice per control:
(1) Normal Control: This consisted solely of the carrier or diluent used in combination with the test compound; and
(2) Positive Control: This consisted solely of the known anti-tumor agent cis-[Pt(NH3)2 C12 ] in saline (8 mg/kg) to test the response of the biological system.
The effectiveness of a test compound was measured in terms of the % increase in life span (% ILS) of the test mice relative to the Normal Control (Calculated from the day of tumor inoculation, i.e., day zero). To standardize the test data and permit intercomparisons, the day of evaluation was arbitrarily taken as that day corresponding to twice the mean life span (or average day of death) of the control. This established a practical upper limit of 100% on the % ILS attainable. For calculation purposes the survivors on the day of evaluation were considered to have died on that day. The % ILS was calculated as follows:
% ILS=mean-life span of test mice/mean-life span of control
ILS values in excess of 50% were interpreted as being indicative of anti-tumor cell activity in animals whereas, values in excess of 75% indicated excellent activity.
The test compounds were evaluated in water.

[3] = solubility in water at room temperature
[4] = system: testicular and ovarian tumors; settings: background; cited from earlier work

Compound	Therapeutic Index [1]	ED90 [1]	% ILS ([2]; 50 mg/kg) [%]	Survivors ([2]; 50 mg/kg)	% ILS ([2]; 100 mg/kg) [%]	Survivors ([2]; 100 mg/kg)	% ILS ([2]; 200 mg/kg) [%]	Survivors ([2]; 200 mg/kg)	% ILS ([2]; 10 mg/kg)	Survivors ([2]; 10 mg/kg)	% ILS ([2]; 20 mg/kg)	Survivors ([2]; 20 mg/kg)	% ILS ([2]; 40 mg/kg) [%]	Survivors ([2]; 40 mg/kg)	% ILS ([2]; 80 mg/kg)	Survivors ([2]; 80 mg/kg)	% ILS ([2]; 160 mg/kg)	Survivors ([2]; 160 mg/kg)	Best % ILS (Dosage) ([2]; 160 mg/kg)	% ILS ([2]; 320 mg/kg) [%]	also measured
O=C([O-])c1ccccc1C(=O)[O-].O=C([O-])c1ccccc1C(=O)[O-].[K+].[K+].[Pd+2] [Example 5, Potassium Bis(phthalato)palladate(II)]	2.3	220	18	0 of 6	38	1 of 6	79	2 of 6													Best % ILS (Dosage) ([2]; 200 mg/kg): 79%; % ILS ([2]; 400 mg/kg): 25%; Survivors ([2]; 400 mg/kg): 0 of 6; solubility in water [3]: 80 mg/mL
O=C([O-])C1(C(=O)[O-])CCC1.O=C([O-])C1(C(=O)[O-])CCC1.[K+].[K+].[Pd+2] [Example 6, Potassium Bis(Cyclobutanedicarboxylato)palladate(II)]	1.1	210							-4%	0 of 6	9%	0 of 6	7	0 of 6	-7%	0 of 6	50%	0 of 6	50%	-75	solubility in water: 200 mg/mL; Survivors ([2]; 320 mg/kg): 0 of 6
O=C([O-])C(=O)C(=O)[O-].O=C([O-])C(=O)C(=O)[O-].[K+].[K+].[Pd+2] [Example 2, Potassium Bis(Ketomalonato)palladate(II)]	2.0	200							4%	0 of 6	4%	0 of 6	4	0 of 6	13%	1 of 6	81%	5 of 6	81%	17	solubility in water: 6.7 mg/mL; Survivors ([2]; 320 mg/kg): 0 of 6
O=C([O-])CC(=O)[O-].O=C([O-])CC(=O)[O-].[K+].[K+].[Pd+2] [K2 [Pd(Malonate)2]]		120							6% and 8%	0 of 6	-1% and 8%	0 of 6	-12	0 of 6	69% and 66%	3 of 6 and 2 of 6	82% and 86%	2 of 6 and 3 of 6	82% and 86%	-74	Survivors ([2]; 320 mg/kg): 0 of 6
O=C([O-])C(O)C(=O)[O-].O=C([O-])C(O)C(=O)[O-].[K+].[K+].[Pd+2] [Example 4, Potassium Bis(Tartronato)palladate(II)]	2.1	190	11	0 of 6	68	3 of 6	76	0 of 6													solubility in water: 2 mg/mL; % ILS ([2]; 12.5 mg/kg): 1%; Survivors ([2]; 12.5 mg/kg): 0 of 6; % ILS ([2]; 25 mg/kg): 12%; Survivors ([2]; 25 mg/kg): 0 of 6; Best % ILS (Dosage) ([2]; 200 mg/kg): 76%; % ILS ([2]; 400 mg/kg): 14%; Survivors ([2]; 400 mg/kg): 3 of 6
CC(C(=O)[O-])C(=O)[O-].CC(C(=O)[O-])C(=O)[O-].[K+].[K+].[Pd+2] [Example 3, Potassium Bis(Methylmalonato)palladate(II)]	1.1	160	2	0 of 6	54	2 of 6	54	0 of 6													% ILS ([2]; 6.25 mg/kg): 11%; Survivors ([2]; 6.25 mg/kg): 0 of 6; % ILS ([2]; 12.5 mg/kg): 2%; Survivors ([2]; 12.5 mg/kg): 0 of 6; % ILS ([2]; 25 mg/kg): -6%; Survivors ([2]; 25 mg/kg): 0 of 6; Best % ILS (Dosage) ([2]; 100 mg/kg): 54%; % ILS ([2]; 400 mg/kg): -83%; Survivors ([2]; 400 mg/kg): 0 of 6; solubility in water [3]: 21 mg/mL
cis-[Pt(NH3)2 -Cl2 ] [Positive Control, reference compound]																					Positive Control Survivors ([2]; 8 mg/kg in saline): 0 of 6 and 1 of 6 and 2 of 6 and 4 of 6; regression of testicular and ovarian tumors (in words) [4]: singularly successful in bringing about a regression of testicular and ovarian tumors
O=C([O-])C(=O)[O-].O=C([O-])C(=O)[O-].[K+].[K+].[Pd+2] [K2 [Pd(Oxalate)2], reference compound]			-7	0 of 6	-9	1 of 6	-71	0 of 6													% ILS ([2]; 12.5 mg/kg): 2%; Survivors ([2]; 12.5 mg/kg): 0 of 6; % ILS ([2]; 25 mg/kg): 33%; Survivors ([2]; 25 mg/kg): 0 of 6
CCC(C(=O)[O-])C(=O)[O-].CCC(C(=O)[O-])C(=O)[O-].[K+].[K+].[Pd+2] [Example 1, Potassium Bis(Ethylmalonato)palladate(II)]	2.1	150							-3%	0 of 6		0 of 6		0 of 6		0 of 6			94%		% ILS ([2]; 5 mg/kg): 6%; Survivors ([2]; 5 mg/kg): 0 of 6; % ILS ([2]; 160 mg/kg, listed as Ex. 1): 94% and 55%; Survivors ([2]; 160 mg/kg, listed as Ex. 1): 5 of 6 and 1 of 6; Survivors ([2]; 320 mg/kg, listed as Ex. 1): 0 of 6 and 1 of 6; solubility in water [3]: 70 mg/mL
CC(C)(C(=O)[O-])C(=O)[O-].CC(C)(C(=O)[O-])C(=O)[O-].[K+].[K+].[Pd+2] [Example 7, Potasium Bis(Dimethylmalonato)palladate(II)]		210							-15%	0 of 6	0%	0 of 6	-8	0 of 6	-11%	0 of 6	61%	1 of 6	61%	26	Survivors ([2]; 320 mg/kg): 0 of 6
